# Where two headings read alike, the source gives them in different places.
# What was measured:
# ISC-enriched organoids [1] = experiment: Lysozyme secretion assay, 3-D organoids in ENR, normalized to ATP; type: cell-based, murine; conditions: 6 hit compounds, 6 days ENR, 10 μM Cch 3 h
# Protocol: Lysozyme assay (3D culture). ISC-enriched organoids cultured in 3D Matrigel with ENRCV media were passaged to 48-well plate in 3D Matrigel with ENRCV. At day zero, media were replaced to ENR or ENRCD with or without indicated compounds, and media were replaced every other day. At day six, cells were washed twice with basal media and treated with carbamylcholine chloride (Sigma, C4382) for 3 hours. Media were collected and lysozyme activity was measured by EnzChek Lysozyme Assay Kit (ThermoFisher, E22013).
# Lysozyme secretion assay. ISC-enriched organoids in 3D Matrigel culture were passaged to a 48- or 96-well plate and cultured with ENR or ENR+CD media containing DMSO or each drug for 6 days. DMSO- or drug-containing media were changed every other day. […] The fluorescence was measured using excitation/emission of 485/530 nm. […] The solution was replaced to a 96-well white microplate, and luminescent signals were measured by a microplate reader (infinite M200, Tecan). […] For both assays, a polynomial cubic curve was fitted to a set of standard data, and each sample value was calculated on the Microsoft Excel.
# Lysozyme secretion assay. […] The fluorescence was measured using excitation/emission of 485/530 nm. […] The solution was replaced to a 96-well white microplate, and luminescent signals were measured by a microplate reader (infinite M200, Tecan). […]
# ISC-enriched organoids [2] = experiment: Primary screen, 384-well 2.5-D organoid differentiation (ENR+CD, 6 days, Target Selective Inhibitor Library, vs whole-plate median): ATP (CellTiter-Glo 3D, CTG); conditions: for Z.CTG / SSMD.CTG: primary screen; for Z.CTG: standard z score; for SSMD.CTG: strictly standardized mean difference
# small intestine = test system: small intestine; parameters: cycling cell number: dose or concentration left out as unconfirmed
# Source text: FIG. 20—KPT-330 treatment in vivo.
# FIG. 21A-21C—Analysis of samples collected from the mice of FIG. 20. A. Western blot for lysozyme of samples collected from the small intestine proximal region. B. Graph showing band intensity of the western blot in (A). C. Histological analysis of the distal small intestine from control and treated mice using immunohistochemistry for lysozyme.
# FIG. 22—Analysis of samples collected from the mice of FIG. 20. […] Graphs showing Paneth cell, Goblet cell, and cycling cell numbers in the proximal and distal small intestines under each treatment condition using markers for each cell type.
# ISC-enriched organoids [3] = experiment: Secondary (validation) screen, 384-well 2.5-D, ENR+CD 6 days, n=8 wells, vs ENR+CD+DMSO control: basal lysozyme secretion (LYZ.NS); type: cell-based, murine
structure (smiles),measurement,setting,value
O=C(/C=C\n1cnc(-c2cc(C(F)(F)F)cc(C(F)(F)F)c2)n1)NNc1cnccn1 [KPT-330],Paneth cell-specific activity (LYZ secretion) in conventional ENR culture,ISC-enriched organoids [1],enhancing Paneth cell-specific activity
same,Z.CTG,ISC-enriched organoids [2]; Dose 0.08 uM,0.503
same,Z.CTG,ISC-enriched organoids [2]; Dose 0.40 uM,−1.569
same,Z.CTG,ISC-enriched organoids [2]; Dose 2.00 uM,−2.135
same,Z.CTG,ISC-enriched organoids [2]; Dose 10.00 uM,−4.480
same,toxicity at concentrations higher than 160 nM,ISC-enriched organoids [2]; primary screening,higher concentrations proved toxic
same,SSMD.CTG,ISC-enriched organoids [2]; 1st of the 4 dose lines of the treatment (dose not given),0.686
same,SSMD.CTG,ISC-enriched organoids [2]; 2nd of the 4 dose lines of the treatment (dose not given),−0.942
same,SSMD.CTG,ISC-enriched organoids [2]; 3rd of the 4 dose lines of the treatment (dose not given),−2.044
same,SSMD.CTG,ISC-enriched organoids [2]; 4th of the 4 dose lines of the treatment (dose not given),−2.988
same,Paneth cell number,"small intestine; distal small intestines, high dose",the high dose decreased Paneth cells
same,cycling cell number,"small intestine; distal small intestines, low dose",significant increase in cycling cell number
same,toxicity to mice,"small intestine; mouse, in vivo",toxic to mice
same,Paneth cell number,small intestine; proximal small intestines,no significant shift in Paneth cell number
same,goblet cell numbers,small intestine; proximal/distal small intestines,"no significant shift in goblet cell numbers, but the trend was an increase"
same,Z.LYZ.NS,ISC-enriched organoids [3]; Dose 0.02 uM,−0.038
same,repSSMD.LYZ.NS,ISC-enriched organoids [3]; Dose 0.02 uM,−0.050
same,Z.LYZ.NS,ISC-enriched organoids [3]; Dose 0.04 uM,−0.318
same,repSSMD.LYZ.NS,ISC-enriched organoids [3]; Dose 0.04 uM,−0.506
same,Z.LYZ.NS,ISC-enriched organoids [3]; dose 0.08 uM,1.132
same,repSSMD.LYZ.NS,ISC-enriched organoids [3]; dose 0.08 uM,1.621
same,increase in LYZ.NS (basal LYZ secretion) relative to ENR+CD control,"ISC-enriched organoids [3]; validated doses, secondary screen",50-75%

# From patent publication US20230398130A1, “METHODS AND COMPOSITIONS FOR DIFFERENTIATING STEM CELLS” (Massachusetts Institute of Technology, priority 2020, published 2023)
